Where “and” joins values, the source holds several entries; their conditions need not be identical. Identical values can stand only once. Toxic doses and inconclusive results are not listed.
System: L1210 leukemia ip in BDF1 mice, survival T/C
Assay: NCI In Vivo Anticancer Drug Screen. Data for tumor model L1210 Leukemia (intraperitoneal) in B6D2F1 (BDF1) mice
Conditions: endpoint: mean survival time, higher = longer survival
Method in brief: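 Value reflects the ratio of survival in compound-treated mice to survival in vehicle-treated controls, with both groups carrying the same transplanted tumor.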

[1] = dose: 100.0 mg/kg/injection, schedule: Q01DX001 (ip), vehicle: saline with Tween-80
[2] = dose: 100.0 mg/kg/injection, schedule: Q04DX002 (ip), vehicle: saline with Tween-80
[3] = dose: 200.0 mg/kg/injection, schedule: Q01DX001 (ip), vehicle: saline with Tween-80
[4] = dose: 200.0 mg/kg/injection, schedule: Q04DX002 (ip), vehicle: saline with Tween-80
[5] = dose: 400.0 mg/kg/injection, schedule: Q01DX001 (ip), vehicle: saline with Tween-80
[6] = dose: 400.0 mg/kg/injection, schedule: Q04DX002 (ip), vehicle: saline with Tween-80
[7] = dose: 100.0 mg/kg/injection, schedule: Q01DX001 (ip), vehicle: Klucel (hydroxypropylcellulose) (HPC)
[8] = dose: 200.0 mg/kg/injection, schedule: Q01DX001 (ip), vehicle: Klucel (hydroxypropylcellulose) (HPC)
[9] = dose: 400.0 mg/kg/injection, schedule: Q01DX001 (ip), vehicle: Klucel (hydroxypropylcellulose) (HPC)
[10] = dose: 100.0 mg/kg/injection, schedule: Q04DX002 (ip), vehicle: Klucel (hydroxypropylcellulose) (HPC)
[11] = dose: 200.0 mg/kg/injection, schedule: Q04DX002 (ip), vehicle: Klucel (hydroxypropylcellulose) (HPC)
[12] = dose: 25.0 mg/kg/injection, schedule: Q01DX009 (ip), vehicle: saline
[13] = dose: 50.0 mg/kg/injection, schedule: Q01DX009 (ip), vehicle: Klucel (hydroxypropylcellulose) (HPC)
[14] = dose: 100.0 mg/kg/injection, schedule: Q01DX009 (ip), vehicle: Klucel (hydroxypropylcellulose) (HPC)
[15] = dose: 100.0 mg/kg/injection, schedule: Q04DX003 (ip), vehicle: Klucel (hydroxypropylcellulose) (HPC)
[16] = dose: 200.0 mg/kg/injection, schedule: Q01DX009 (ip), vehicle: Klucel (hydroxypropylcellulose) (HPC)
[17] = dose: 200.0 mg/kg/injection, schedule: Q04DX003 (ip), vehicle: Klucel (hydroxypropylcellulose) (HPC)
[18] = dose: 400.0 mg/kg/injection, schedule: Q01DX009 (ip), vehicle: Klucel (hydroxypropylcellulose) (HPC)
[19] = dose: 400.0 mg/kg/injection, schedule: Q04DX003 (ip), vehicle: Klucel (hydroxypropylcellulose) (HPC)

Cc1ccc(C(C)C)cc1NC(=O)/C=C/c1ccccc1
T/C (dose: 6.25 mg/kg/injection, schedule: Q01DX009 (ip), vehicle: saline with Tween-80): 97 % of control and 98 % of control | T/C (dose: 12.5 mg/kg/injection, schedule: Q01DX009 (ip), vehicle: saline with Tween-80): 97 % of control and 98 % of control | T/C (dose: 25.0 mg/kg/injection, schedule: Q04DX003 (ip), vehicle: saline with Tween-80): 88 % of control | T/C (dose: 50.0 mg/kg/injection, schedule: Q01DX001 (ip), vehicle: saline with Tween-80): 95 % of control | T/C (dose: 50.0 mg/kg/injection, schedule: Q04DX003 (ip), vehicle: saline with Tween-80): 88 % of control | T/C [1]: 94 % of control | T/C [2]: 93 % of control and 96 % of control | T/C (dose: 100.0 mg/kg/injection, schedule: Q04DX003 (ip), vehicle: saline with Tween-80): 88 % of control | T/C [3]: 86 % of control and 87 % of control | T/C [4]: 88 % of control and 90 % of control | T/C (dose: 200.0 mg/kg/injection, schedule: Q04DX003 (ip), vehicle: saline with Tween-80): 89 % of control | T/C [5]: 94 % of control and 108 % of control | T/C [6]: 96 % of control and 88 % of control

O=C(OCCN1CCCCC1)C(c1ccccc1)C1(O)CCCC1 (centres undefined)
T/C (dose: 50.0 mg/kg/injection, schedule: Q01DX009 (ip), vehicle: saline): 106 % of control | T/C (dose: 100.0 mg/kg/injection, schedule: Q01DX009 (ip), vehicle: saline): 116 % of control

O=C(/C=C/c1ccccc1)NN1CCOCC1
T/C (dose: 75.0 mg/kg/injection, schedule: Q01DX009 (ip), vehicle: Klucel (hydroxypropylcellulose) (HPC)): 92 % of control | T/C (dose: 150.0 mg/kg/injection, schedule: Q01DX009 (ip), vehicle: Klucel (hydroxypropylcellulose) (HPC)): 108 % of control | T/C (dose: 300.0 mg/kg/injection, schedule: Q01DX009 (ip), vehicle: Klucel (hydroxypropylcellulose) (HPC)): 115 % of control

CC(=O)NC1C(CO)OC(n2cnc3c(N)nc(Cl)nc32)C1O (centres undefined)
T/C [7]: 94 % of control | T/C [1]: 105 % of control | T/C [8]: 96 % of control | T/C [3]: 107 % of control | T/C [9]: 91 % of control | T/C [5]: 100 % of control

CCCC(=O)Nc1cccc2ccccc12
T/C [10]: 117 % of control | T/C [11]: 107 % of control

O=[N+]([O-])c1ccc(O)c(/C=N/N2CCCCC2)c1
T/C [2]: 94 % of control | T/C [4]: 97 % of control | T/C [6]: 108 % of control

O=C(Nc1ccccc1)c1ccc2c(c1)C(=O)OC2=O
T/C (dose: 100.0 mg/kg/injection, schedule: Q01DX009 (ip), vehicle: saline with Tween-80): 102 % of control | T/C (dose: 200.0 mg/kg/injection, schedule: Q01DX009 (ip), vehicle: saline with Tween-80): 94 % of control | T/C (dose: 400.0 mg/kg/injection, schedule: Q01DX009 (ip), vehicle: saline with Tween-80): 89 % of control

NC(=O)N(N)CCO
T/C (dose: 100.0 mg/kg/injection, schedule: Q01DX001 (ip), vehicle: saline): 102 % of control | T/C (dose: 200.0 mg/kg/injection, schedule: Q01DX001 (ip), vehicle: saline): 91 % of control | T/C (dose: 400.0 mg/kg/injection, schedule: Q01DX001 (ip), vehicle: saline): 93 % of control

CCCCCCCCCCCCCCCC(=O)Nc1cccc(C)c1C
T/C [2]: 93 % of control | T/C [4]: 86 % of control

CN1CCN(c2ccc([N+](=O)[O-])c3no[n+]([O-])c23)CC1
T/C (dose: 0.2 mg/kg/injection, schedule: Q03HX024 (ip), vehicle: saline with Tween-80): 104 % of control | T/C (dose: 0.39 mg/kg/injection, schedule: Q03HX024 (ip), vehicle: saline with Tween-80): 100 % of control | T/C (dose: 0.78 mg/kg/injection, schedule: Q03HX024 (ip), vehicle: saline with Tween-80): 111 % of control | T/C (dose: 1.56 mg/kg/injection, schedule: Q03HX024 (ip), vehicle: saline with Tween-80): 105 % of control | T/C (dose: 3.13 mg/kg/injection, schedule: Q03HX024 (ip), vehicle: saline with Tween-80): 109 % of control | T/C (dose: 7.5 mg/kg/injection, schedule: Q01DX009 (ip), vehicle: saline): 108 % of control and 115 % of control | T/C (dose: 10.0 mg/kg/injection, schedule: Q01DX009 (ip), vehicle: saline): 118 % of control | T/C (dose: 15.0 mg/kg/injection, schedule: Q01DX009 (ip), vehicle: saline): 115 % of control and 124 % of control | T/C [12]: 117 % of control | T/C (dose: 25.0 mg/kg/injection, schedule: Q04DX002 (ip), vehicle: Klucel (hydroxypropylcellulose) (HPC)): 104 % of control | T/C (dose: 50.0 mg/kg/injection, schedule: Q04DX002 (ip), vehicle: Klucel (hydroxypropylcellulose) (HPC)): 104 % of control | T/C [10]: 113 % of control

C/C(=N/N(C)C)c1ccc(Br)cc1
T/C (dose: 6.25 mg/kg/injection, schedule: Q01DX009 (ip), vehicle: saline): 100 % of control | T/C (dose: 12.5 mg/kg/injection, schedule: Q01DX009 (ip), vehicle: saline): 94 % of control | T/C [12]: 92 % of control | T/C [13]: 108 % of control

O=[N+]([O-])c1ccc(N=N/C(Cc2ccccc2)=N\Nc2ccccc2)cc1
T/C [13]: 90 % of control | T/C [14]: 95 % of control | T/C [15]: 87 % of control | T/C [16]: 92 % of control | T/C [17]: 100 % of control | T/C [18]: 90 % of control | T/C [19]: 101 % of control

O=NN(CCCl)C(=O)Nc1ccc(C(F)(F)F)cc1
T/C (dose: 4.6 mg/kg/injection, schedule: Q01DX Z (ip), vehicle: carboxymethylcellulose (CMC)): 154 % of control | T/C (dose: 9.37 mg/kg/injection, schedule: Q01DX Z (ip), vehicle: carboxymethylcellulose (CMC)): 166 % of control | T/C (dose: 18.75 mg/kg/injection, schedule: Q01DX Z (ip), vehicle: carboxymethylcellulose (CMC)): 190 % of control | T/C (dose: 37.5 mg/kg/injection, schedule: Q01DX Z (ip), vehicle: carboxymethylcellulose (CMC)): 108 % of control | T/C (dose: 50.0 mg/kg/injection, schedule: Q01DX001 (ip), vehicle: carboxymethylcellulose (CMC)): 151 % of control | T/C (dose: 75.0 mg/kg/injection, schedule: Q01DX001 (ip), vehicle: carboxymethylcellulose (CMC)): 167 % of control

COC(=O)Nc1cccc2c1C=CC(C#N)N2C(=O)OC (centres undefined)
T/C [14]: 93 % of control | T/C [15]: 87 % of control | T/C [16]: 100 % of control | T/C [17]: 91 % of control | T/C [19]: 100 % of control

COc1cc(N)ccc1C(=O)NC(CCC(=O)O)C(=O)O (centres undefined)
T/C [7]: 103 % of control | T/C [8]: 100 % of control | T/C [9]: 103 % of control

COc1ccc(CCN2C(=O)c3cccc4c([N+](=O)[O-])ccc(c34)C2=O)cc1OC
T/C [14]: 100 % of control | T/C [16]: 94 % of control | T/C [18]: 93 % of control

CC(=O)OC1CCC2(C)C(CCC3C2CCC2(C)C(C(C)CCO)CCC32)C1 (centres undefined)
T/C (dose: 100.0 mg/kg/injection, schedule: Q04DX003 (sc), vehicle: steriod suspending solution): 95 % of control | T/C (dose: 200.0 mg/kg/injection, schedule: Q04DX003 (sc), vehicle: steriod suspending solution): 104 % of control | T/C (dose: 400.0 mg/kg/injection, schedule: Q04DX003 (sc), vehicle: steriod suspending solution): 100 % of control

COc1c(NC(=O)c2c(Br)c(Br)c(Br)c(Br)c2C(=O)O)cccc1[N+](=O)[O-]
T/C [10]: 94 % of control | T/C [11]: 102 % of control | T/C (dose: 400.0 mg/kg/injection, schedule: Q04DX002 (ip), vehicle: Klucel (hydroxypropylcellulose) (HPC)): 118 % of control

Source: PubChem BioAssay AID248 (DTP/NCI, 2004)
